Source: patent US7655395B2, “Isolation and use of ryanodine receptors” (E.I. du Pont de Nemours and Company, priority 2002, dated 2010)

Assays:
[1] = test system: control cells without DNA / wild-type Sf9 cells; assay: Calcium response in control Sf9 cells (without DNA, lipid only, non-transfected, wild type); assay type: cell-based, Spodoptera frugiperda
From the text: (§1) Several drops of a suspension of recombinant Spodoptera frugiperda cell line, Sf9, transiently expressing insect ryanodine receptors were placed on a poly-L-lysine-coated coverslip and allowed to attach. Cells were then rinsed in physiological saline having the following composition (mM): NaCl 130; KCl 5.4; MgCl2 1.2; CaCl2 1.0; NaHCO3 4.2; NaH2P04 7.3; Glucose 10; Sucrose 63; MES 20; pH 6.3. Cells were then bathed in physiological saline containing the calcium sensitive fluoroprobe, Fura-2 AM (2 μM), and Pluronic F127 (0.002%) for 30 min. Cells were rinsed in standard physiological saline for at least 15 min prior to testing. Testing was conducted in standard physiological saline, as the cell lines are devoid of functional voltage-gated calcium channels.
Imaging studies were conducted using a Nikon Diaphot microscope with a 40× oil immersion objective (NA 1.3) Image acquisition and processing was performed using the MetaFluor™ imaging system from Universal Imaging Corporation (West Chester, Pa.) Calcium calibration was carried out using the Grynkiewicz equation with a dissociation constant (Kd) of 145 nM for Fura-2 (Grynkiewicz et al., 1985). Cell-attached coverslips were placed in a sealed chamber with physiological saline continuously perfused across the cells using a peristaltic pump. Test compounds solubilized in physiological saline were applied by switching the perfusate source.
(§2) For studies involving the stable recombinant Spodoptera frugiperda cell line, Sf9, (other cell lines could also be used such as Sf21, S2, etc) expressing an insect ryanodine receptor from Drosophila melanogaster, or Heliothis virescens (alternatively receptors from other species such as Myzus persicae, Peregrinus maidis, Aphis gossypii, etc) were grown in T75 (or other appropriate sized) flasks in supplemented Grace's insect medium. Cells were maintained in an incubator at 22° C. until testing. Cells were suspension-loaded with the calcium sensitive fluoroprobe, Fura-2 AM (1-2 μM) and Pluronic F127 (0.002%) in culture medium for 30 minutes under agitation. Cells were then centrifuged and the pellet resuspended in physiological saline having the following composition (mM): NaCl 130; KCl 5.4; MgCl2 1.2; CaCl2 1.0; NaHCO3 4.2; NaH2P04 7.3; Glucose 10; Sucrose 63; MES 20; pH 6.3 at approximately 150,000-200,000 cells per well (96-well plate). After a 30 minute equilibration period the cell plate was tested using a Molecular Devices' FlexStation™ system with dual wavelength excitation (340 and 380 nm) and fluorescence emission measured at 510 nm. Test and control samples were added using integrated fluidics and the intracellular calcium monitored over a 2 minute period.

[2] = test system: recombinant Heliothis virescens ryanodine receptor (expressed in Sf9 cells); assay: Calcium release assay, Sf9 cells transiently or stably expressing Heliothis virescens ryanodine receptor (Fura-2); assay type: cell-based; settings: for calcium response: Sf9 stably expressing H. virescens ryanodine receptor, FIG. 5
Protocol: SF9 cells were grown at 27 degrees C. in a Corning 125 ml polycarbonate Erlenmeyer flask to a density of 3.1 million cells per ml in SF900-II serum free media (Gibco catalog no. 10902-088, Invitrogen™, Carlsbad, Calif.). One million cells were transferred to one well of a Corning 6-well, flat bottom cell culture dish (Corning Inc., Acton, Mass., catalog no. 3516). SF900-II media was used to bring the final volume in the dish to 2 ml and the cells were incubated at 27 degrees C. for 21 h. Following the incubation the media was aspirated from the dish and replaced with 1 ml of SF900-II media pre-warmed to 27 degrees C.
In the case of the vectors containing the Cre recognition elements, the transfection solution was mixed in a 1.5 ml microfuge tube by combining 5 ug of pHE7 plasmid, 5 ug of pMLS104 Cre plasmid and 0.5 ug of lacZ reporter plasmid, 15 ug of cellfectin reagent (Invitrogen cat. #10362-010) and SF900-II serum free media (Gibco catalog #10902-088, Invitrogen™, Carlsbad, Calif.) in a total volume of 500 ul. The solution was incubated for 1 hour at room temperature just prior to the transfection.
The transfection was accomplished by adding the transfection solution drop-wise to the dish and incubating 4 h at room temperature with gentle rocking. After the 4 h incubation the media was replaced with 2 ml of SF900-II media pre-warmed to 27 degrees C. and the cells were incubated 3 days at 27 degrees C.
as §1, with “Testing was conducted in standard physiological saline, as the cell lines are devoid of functional voltage-gated calcium channels.” left out
For studies involving the stable recombinant Spodoptera frugiperda cell line, Sf9, (other cell lines could also be used such as Sf21, S2, etc) expressing an insect ryanodine receptor from Drosophila melanogaster, or Heliothis virescens (alternatively receptors from other species such as Myzus persicae, Peregrinus maidis, Aphis gossypii, etc) were grown in T75 (or other appropriate sized) flasks in supplemented Grace's insect medium. […] After a 30 minute equilibration period the cell plate was tested using a Molecular Devices' FlexStation™ system with dual wavelength excitation (340 and 380 nm) and fluorescence emission measured at 510 nm. […]

[3] = biological target: T1, recombinant Drosophila melanogaster ryanodine receptors (expressed in Sf9 cells) (Drosophila melanogaster, UniProt Q24498); assay type: cell-based; settings: receptor expressed in Sf9 cells
T1 construct: expressed in transfected cells
Protocol: The Spodoptera frugiperda cell line Sf9 used for transfection studies, was maintained in Sf-900 II SFM medium (Invitrogen Life Technologies™, Carlsbad, Calif.) in T-75 flasks incubated at 27° C. It is understood that those skilled in the art might choose alternative cell types such as the Spodoptera frugiperda cell line Sf21 or the Drosophila cell line S2. For the purpose of general handling and propagation, cells were suspended through scraping or agitation and a volume of cell suspension was added to each well of a poly-L-lysine coated 96-well, glass-bottom plate so as to provide 70-80% confluence. Cells were maintained in an incubator at 27° C. until testing.
SF900-II media was used to bring the final volume in the dish to 2 ml and the cells were incubated at 27 degrees C. for 21 h. Following the incubation the media was aspirated from the dish and replaced with 1 ml of SF900-II media pre-warmed to 27 degrees C.
The transient transfection was carried out following an InsectSelect BSD System manual (Invitrogen Life Technologies™, Carlsbad, Calif.). […] The transfection was accomplished by adding the transfection solution drop-wise to the dish and incubating 4 h at room temperature with gentle rocking. […]
as §1
Cell-attached coverslips were placed in a sealed chamber with physiological saline continuously perfused across the cells using a peristaltic pump. Test compounds solubilized in physiological saline were applied by switching the perfusate source.
as §2

SMILES | calcium response in control cells without DNA ([1]; caffeine 10 mM) | caffeine dose response, calcium mobilization ([1]; wild-type Sf9 cells (Sf9-WT), FlexStation, FIG. 6) | calcium response ([2]; caffeine 10 mM) | cytosolic [Ca2+] response ([2]; caffeine 10 mM, Sf9 transiently expressing H. virescens ryanodine receptor, 72 hr post-transfection, FIG. 4) | Calcium Release Threshold (nM) D. melanogaster [3] [nM] | calcium response ([2]; Compound 14 1 μM)
Cn1c(=O)c2c(ncn2C)n(C)c1=O [Caffeine, reference compound] | No significant calcium responses | insensitive | calcium responses elicited | increase in cytosolic [Ca^2+] | – | –
CNC(=O)c1cc(Cl)cc(C)c1NC(=O)c1cc(Br)nn1-c1ncccc1Cl [Cpd 14] | – | – | – | – | <300 | calcium responses elicited
